This note sets out measurements from the NIST ThermoML archive (doi:10.1016/j.jct.2004.07.031).

Each structure is given as a SMILES string. Numbers after ± are expanded uncertainties.

For the data set the following is noted: 298.15 K; 101.33 kPa; Crystal; PPMS instrument (Quantum Design).

For the molecule `O=P([O-])([O-])[O-].[Gd+3]` [gadolinium orthophosphate], the molar entropy was 124.57 ± 5.6 J/K/mol.

Consider `O=P([O-])([O-])[O-].[La+3]` [lanthanum orthophosphate], for which the molar entropy came to 108.24 ± 4.9 J/K/mol.
